A short description of data set [1]: in vitro. As to conditions: human, microsomes.
Data set [2] is described as follows: in vivo. To be noted: rat, po, 2 mg/kg.
Data set [3] in a line: in vivo. To be noted: cynomolgus monkey, po, 1 mg/kg.
Data set [4] can be described thus: in vitro. As to conditions: human, plasma.
The nature of data set [5]: in vitro. As to conditions: rat, plasma.
A short description of data set [6]: Permeability test (MDR1-MDCKII monolayer, bidirectional transport). It is filed as in vitro ADME. To be noted: dog; for efflux ratio at 2.5 h, 2 µM: MDCK-MDR1, pH 7.4, ER = Papp (BA)/ Papp (AB); for Papp A→B at 2.5 h, 2 µM: MDCK-MDR1, pH 7.4, pH 7.40, 2.5 hours, A to B, read-out: Apparent permeability coefficient (Papp (AB), 10^-6 cm/s). The method, then:
(§1) Experimental objective: The permeability and efflux ratio of the compound of the present disclosure were determined using the MDR1-MDCKII monolayer cell model to assess its membrane permeability and potential for P-gp-mediated efflux transport.
(§2) Experimental protocol: MDR1-MDCKII cells (obtained from the Netherlands Cancer Institute) were seeded in 96-well plates (obtained from Corning) at a cell density of 3.33 × 10^5 cells/mL and cultured for 4 to 7 days to form confluent cell monolayers. Hank's balanced salt solution containing 10 mM HEPES (pH 7.40) was used as the transport buffer. The test compound was evaluated for bidirectional transport at a concentration of 2 µM, with the DMSO concentration in the incubation system maintained below 1%. After adding the samples, the cell plate was incubated at 37±1°C, 5% CO2, and saturated humidity for 2.5 hours. All samples were quantitatively analyzed using the LC-MS/MS method. The apparent permeability coefficient (Papp, cm/s) and efflux ratio (ER) were calculated using the following formula. Apparent permeability coefficient (Papp, cm/s) was calculated using the following formula: Papp = (dCr/dt) x Vr / (A x C0). Herein, dCr/dt represents the cumulative concentration of the compound at the receiving end per unit time (µM/s); Vr is the volume of the solution at the receiving end (with solution volumes at the apical and basolateral ends being 0.075 mL and 0.250 mL, respectively); A is the relative surface area of the cell monolayer (0.143 cm^2); C0 is the initial concentration of the test substance at the dosing end (µM) or the peak area ratio of the reference substance. The efflux ratio was calculated using the following formula: ER = Papp (BA)/ Papp (AB). Table 7: Permeability test results of compounds

Data set [7] is described as follows: in vitro. To be noted: cynomolgus monkey, plasma.
The nature of data set [8]: In vitro liver microsome metabolic stability study. To be noted: human liver microsomes 0.5 mg/mL, 1 µM compound, up to 60 minutes.
Data set [9] is described as follows: Plasma protein binding rate test (equilibrium dialysis), human plasma. To be noted: 2 µM, equilibrium dialysis 4 hours, 37°C.
A short description of data set [10]: Plasma protein binding rate test (equilibrium dialysis), SD rat plasma. As to conditions: 2 µM, equilibrium dialysis 4 hours, 37°C.
Data set [11] in a line: Plasma protein binding rate test (equilibrium dialysis), cynomolgus monkey plasma. To be noted: 2 µM, equilibrium dialysis 4 hours, 37°C.
For the next data set, the system named is MDR1-MDCKII cells. In words: Permeability test (MDR1-MDCKII monolayer, bidirectional transport). It is filed as in vitro ADME. To be noted: 2 µM. The method, then: as §1, §2
Data set [12] in a line: In vivo pharmacokinetics study in rats. To be noted: male SD rats, oral 2 mg/kg.
The nature of data set [13]: In vivo pharmacokinetic study in cynomolgus monkeys. To be noted: male cynomolgus monkeys, oral 3 mg/kg.

The structures appear in SMILES notation. Bounds are passed on as bounds.

In turn, `CCC(=O)NC1CCCc2c(-c3cc4ccc(=O)n(C)c4s3)cncc21` (single isomer, unassigned) [Compound 023] yielded a CLint scaled at 1 µM in “in vitro [1]” of less than 8.6 mL/min/kg. Besides, in the data set “in vivo [2]”, the AUC(0-t) at 24 h was determined as 44.2 µM·h, the Cmax came to 6.92 µM, the bioavailability was found to be 109% and the half-life was 3.6 h. Further, in “in vivo [3]”, the AUC(0-t) at 24 h is 8.92 µM·h, the highest level (Cmax) was 1.32 µM, the bioavailability amounted to 76.5% and the half-life is 4.8 h. In addition, in “in vitro [4]”, the fraction unbound at 4 h, 2 µM was 0.304. The compound also showed a fraction unbound at 4 h, 2 µM in “in vitro [5]” of 0.096. In [6], the efflux ratio at 2.5 h, 2 µM is 1.28 and the Papp A→B at 2.5 h, 2 µM was determined as 20.8 ×10⁻⁶ cm/s. In addition, in the data set “in vitro [7]”, the fraction unbound at 4 h, 2 µM is 0.31.
Take `CCC(=O)N[C@@H]1CCCc2c(-c3ccc4c(ccc(=O)n4C)c3)cncc21` (single isomer, unassigned) [Compound 001]: the “Intrinsic hepatic clearance CLint(liver)” value in data set [8] was less than 8.6 mL/min/kg. The “Human plasma protein binding rate (%)” value in data set [9] was 76.1%. Further, in data set [10], the “Plasma protein binding rate (%) in SD rats” value is 92.1%. Further, in data set [11], the “Plasma protein binding rate (%) in cynomolgus monkeys” value turned out to be 74.6%. Besides, in the data set with MDR1-MDCKII cells (ER = Papp (BA)/ Papp (AB), 150 min), the “Efflux ratio (ER)” value worked out at 1.76. The “Apparent permeability coefficient (Papp (AB), 10^-6 cm/s)” value with MDR1-MDCKII cells (pH 7.40, 2.5 hours, A to B) is on record as 17.2 10^-6 cm/s. In addition, the “F (%)” value came to 80% in [12] and 120% in data set [13]. The “AUC0-24h” value came out at 59.097 µM·h in data set [12] (plasma) and 23.174 µM·h in [13] (plasma). In addition, the Cmax in data set [12] (plasma) was determined as 7.63 µM; in data set [13] (plasma), 4 µM. The “T1/2” value was determined as 4.61 h in data set [12] (plasma) and 4.99 h in [13] (plasma).
Turning to `CCC(=O)NC1CCCc2c(-c3cc4c(s3)N(C)C(=O)CC4)cncc21` (single isomer, unassigned) [Compound 017], in “in vitro [1]”, the CLint scaled at 1 µM is less than 8.6 mL/min/kg. In the data set “in vivo [2]”, the AUC(0-t) at 24 h was determined as 8.13 µM·h, the Cmax came to 4.17 µM, the bioavailability turned out to be 115% and the half-life is 1.34 h. In “in vivo [3]”, the AUC(0-t) at 24 h worked out at 7.29 µM·h, the highest level (Cmax) was 1.07 µM, the bioavailability came out at 66% and the half-life was 5.3 h. This compound also had a fraction unbound at 4 h, 2 µM in “in vitro [4]” of 0.173. For the same compound, the fraction unbound at 4 h, 2 µM in the data set “in vitro [5]” was 0.051. In addition, in data set [6], the efflux ratio at 2.5 h, 2 µM is 0.95 and the Papp A→B at 2.5 h, 2 µM amounted to 23.2 ×10⁻⁶ cm/s. In “in vitro [7]”, this compound gave a fraction unbound at 4 h, 2 µM of 0.219.

Source of the values: patent EP4711361A1, “NITROGEN-CONTAINING HETEROCYCLIC COMPOUND AND USE THEREOF” (Jiangsu Deyuan Pharmaceutical Co.,Ltd., priority 2023, dated 2024).
